Assay results as given in patent publication US7585637B2, “Estrogen related receptor, ERRα, a regulator of bone formation” (priority 1999, dated 2009).

Assays:
[1] = system: primary rat calvaria (RC) cells; assay: Cell number (cell counting) in RC cell cultures treated with ERRα antisense/sense oligonucleotides; assay type: cell-based
Experimental: (§1) Cells were enzymatically isolated from the calvaria of 21 d Wistar rat fetuses by sequential digestion with collagenase as described previously (Bellows, 1986). Cells obtained from the last four of the five digestion steps (populations II-V) were pooled and plated in T-75 flasks in α-MEM containing 15% heat-inactivated FBS (Flow Laboratories, McLean, Va.) and antibiotics comprising […] penicillin G (Sigma Chemical Co., St. Louis, Mo.), […] gentamycin (Sigma), and […] fungizone (Flow Laboratories). After 24 h incubation, attached cells were washed with PBS to remove nonviable cells and other debris, and then collected by trypsinization using 0.01% trypsin in citrate saline. Aliquots were counted with a Coulter Counter (Coulter Electronics, Hialeah Fla.), and the remaining cells were resuspended in the standard medium described above. The resuspended cells were plated into 100 mm tissue culture dishes at 10^5 cells/dish, into 35 mm tissue culture dishes at 2×10^4/dish and in 24 wells plates at 10^4 cells/well. […] Medium was changed every 2 days. All dishes were incubated at 37° C. in a humidified atmosphere in a 95% air/5% CO2 incubator.
For cell growth analysis, the cell layers were rinsed in PBS, released with trypsin and collagenase (1:1, vol/vol, of solutions described above), and the harvested cells were counted electronically. Results are plotted as the average of three counts for each of three dishes for control and pcDNA3-ERRα or three wells for each concentration of antisense or sense primers used.
(§2) The resuspended RC cells were plated in 24 wells plates at 10^4 cells/well. Antisense oligonucleotide inhibition of ERRα expression was accomplished with a 20-base phosphorotbioate-modified oligonucleotide, localized to the A/B domain. The ERRα antisense oligonucleatide sequence was: 5′[…]-3′(SEQ ID NO:30). Control dishes were treated with the complementary sense oligonucleotide or no oligonucleotide. Preliminary experiments were done to determine effective oligonucleotide concentrations that were not toxic. […] Medium was changed every 2 days and fresh oligonucleotides were added. mRNA was collected at day 6 for the proliferation experiments and at day 15 for the differentiation experiments. Nodules were counted at 15 days.

[2] = system: ALP, BSP, OPN, OCN, cbfa1, COLLI, Cyclin D1, c-Fos, Bcl2, Bax; assay: RT-PCR of osteoblast, proliferation and apoptosis markers in antisense-treated RC cells; assay type: cell-based, rat
Experimental: Samples of total cellular RNA (1.5-5 μg) were reverse-transcribed using oligo dT and the first strand synthesis kit of Superscript™ II, Gibco BRL. PCR was performed with specific primers specific for ERRα. Primers, located in different exons, were as follows: […]
Osteoblast-associated and other markers were also amplified by PCR using specific primers for rat OCN, OPN, ALP, BSP, Cbfa1, COLL I (collagen type I α chain), C-fos, Cyclin D1, Bax and Bcl-2. PCR was done for 25 cycles (94° C. for 1 min, 55° C. for 1 min, 72° C. for 1 min and a final elongation step of 7 min at 72° C.) for OCN, OPN, ALP, BSP, L32, Bax and 30 cycles for Bcl-2, 32 cycles for c-Fos, 35 cycles for Cyclin D1 and Cbfa1 (with annealing temperatures of 58° C. and 62° C. respectively and 23 cycles for COLLI with annealing temperature of 59° C.
as §2

[3] = system: primary rat calvaria (RC) cells; assay: Mineralized bone nodule formation (von Kossa) in RC cell cultures treated with antisense/sense oligonucleotides; assay type: cell-based; settings: for decrease in mineralized bone nodule formation: treated day 5 to day 11; for decrease in mineralized bone nodule number: treated days 1-6 then normal differentiation medium, day 15
Experimental: as §1
For quantification of nodule formation, dishes or wells were fixed and stained by the Von Kossa technique and bone nodules were counted on a grid (Bellows et al., 1986; Bellows and Aubin, 1989). Results are plotted as the mean number of nodules±SD of three wells for controls and each concentration of antisense or sense primers and five dishes for pcDNA3 control and pcDNA3-ERRα.
as §2

ERRα = assay: Immunocytochemistry for ERRα on bone nodules after oligonucleotide treatment; assay type: cell-based, rat; settings: 24 h of treatment; 1 μM
Experimental: Immunolabelling of cultures was done essentially as described previously (Turksen, 1991; Turksen, 1992). Cultures were rinsed with PBS, fixed with 3.7% formaldehyde in PBS and permeabilized with methanol at −20° C. Frozen sections were fixed 10 min in cold acetone. Paraffine sections were treated deparaffined in xylene, then rehydrated in 100%, 95% and 70% ethanol and water. After rinsing, cells in dishes or frozen, paraffine sections were incubated for 1 h at room temperature with 10% normal serum in PBS for ERRα and ERα and in 3% BSA in PBS (denaturated) for ERβ OCN, ALP, OPN, and BSP. After rinsing, cells or sections were incubated for 1.5 hours with appropriate dilutions of primary antibodies (1/50, anti-ERRα; anti-ERα or anti-ERβ (MC-20 or Y-19, respectively; Santa Cruz Biotechnology, Inc))(Shim et al, 1999; Saji et al, 2000; Tremblay et al 1999). The anti-rat OCN antiserum was kindly provided by Dominique Modrowski (INSERM U349, Hopital Lariboisiere, Paris, France) and used at 1/100 dilution. The anti-OPN MPIIIB10) and anti-BSP (WWVIDI) antibodies were purchased from the Hybridoma Bank (Iowa City, Iowa) and used at a 1/800 and 1/500 dilution respectively. […]

ERRα mRNA = ERRα mRNA expression (Northern blot) in RC cells treated with hormones or growth factors; assay type: cell-based, rat; settings: for effect of acute exposure on ERRα mRNA levels: 24 hours beginning at day 9 or day 15 (E2, D3) or day 7 and day 15 (TGFβ); for stimulation of ERRα mRNA expression at times later than day 6 / stimulation (increase) of ERRα mRNA expression: RC cells treated continuously; for stimulation (increase) of ERRα mRNA expression: E2 10^−8M, D3 10^−9M, TGFβ 10^−10 M
Experimental: as §1
Total RNA was extracted with guanidine from RC cells at different times of the culture corresponding to different stages of proliferation, differentiation and bone nodule formation (Current Protocols in Molecular Biology, vol. 1, 1996). Northern blots were prepared and hybridized with a 750bp fragment corresponding to the rat 3′ UTR of ERRα according to standard procedures (Chirgwin et al, 1979). Rat α1 COLL-I (Genovese et al.) was a 900bp cDNA PstI fragment containing the entire 3′ noncoding region and one-half of the C-terminal of the propeptide of the α1 chain of type I. Rat bone/liver/kidney ALP (Noda et al., 1987) was a 600 bp cDNA EcoRI fragment obtained by digesting pRAP54 with BssHII-XhoI to remove 1.8 kb of the 5′ region and religating the blunt ends. Rat OPN was a 700 bp cDNA BamHI-EcoRI fragment obtained by digesting the full length cDNA with PvuI to remove 800 bp of 5′ region and ligating the blunt ended fragment into SmaI cut pGEM-7Zf(+) vector (Promega, Madison, Wis.). Rat OCN was a partial cDNA containing 350 bp of the 3′ UTR isolated with OCN-specific primers from a λgt11 library prepared from ROS 17/2.8 cells, rat BSP was a partial cDNA containing 500bp of 3′ region isolated with BSP-specific primers from a λgt11 library prepared from RC cells forming bone nodules, and rat L32 was generated from RC cell mRNA by PCR using specifics primers; the identities of the OCN, BSP and L32 probes were confirmed by sequencing (Liu et al., 1994).

[4] = treated days 1-6, day 15, vs control or sense-treated

Question: What does the source list for “5′TCACCGGGGGTTCAGTCTCA-3′(SEQ ID NO:30) (all phosphorothioate, sugars by position and methylation of C not given here) [antisense oligonucleotide]”?
Answer: decrease in cell number ([1]; RC cells treated days 1-6, counted at day 6, 1 μM, vs sense or untreated controls): 30%; decrease in cell number ([1]; RC cells treated days 1-6, counted at day 6, 2 μM, vs sense or untreated controls): 40%; decrease in cell number ([1]; treated day 5 to day 11, by day 15, 1 μM): 19%; decrease in cell number ([1]; treated day 5 to day 11, by day 15, 2 μM): 35%; ALP expression ([2]; treated day 5 to day 11): not affected; BSP expression ([2]; treated day 5 to day 11): decreased; COLLI expression ([2]; treated day 5 to day 11): not affected; OCN expression ([2]; treated day 5 to day 11): decreased; OPN expression ([2]; treated day 5 to day 11): not affected; cbfa1 expression ([2]; treated day 5 to day 11): decreased; ALP expression ([2]; treated days 1-6, day 6): not significantly affected; BSP expression ([2]; treated days 1-6, day 6): reduced significantly; Bax expression ([2]; treated days 1-6, day 6): not significantly affected; Bcl2 expression ([2]; treated days 1-6, day 6): not significantly affected; COLLI expression ([2]; treated days 1-6, day 6): not significantly affected; Cyclin D1 expression ([2]; treated days 1-6, day 6): reduced but it did not reach statistical significance; OPN expression ([2]; treated days 1-6, day 6): not significantly affected; c-Fos expression ([2]; treated days 1-6, day 6): not significantly affected; cbfa1 expression ([2]; treated days 1-6, day 6): reduced significantly; COLLI expression ([2]; treated days 1-6, day 15): not significantly altered; OCN expression ([2]; treated days 1-6, day 15): not significantly altered; OPN expression ([2]; treated days 1-6, day 15): not significantly altered; ALP expression [2, 4]: remained lower; BSP expression [2, 4]: remained lower; ALP expression ([2]; treated days 9-15): not BSP, COLLI or ALP were decreased; BSP expression ([2]; treated days 9-15): not BSP, COLLI or ALP were decreased; COLLI expression ([2]; treated days 9-15): not BSP, COLLI or ALP were decreased; OCN expression ([2]; treated days 9-15): decreased; OPN expression ([2]; treated days 9-15): decreased; decrease in mineralized bone nodule formation ([3]; 0.5 μM): 30%; decrease in mineralized bone nodule formation ([3]; 1 μM): 60%; decrease in mineralized bone nodule formation ([3]; 2 μM): 100%; decrease in mineralized bone nodule number ([3]; 1 μM): 29%; decrease in mineralized bone nodule number ([3]; 2 μM): 45%; decrease in the number of mineralized bone nodules formed ([3]; treated days 9-15, 1 μM): 17%; decrease in the number of mineralized bone nodules formed ([3]; treated days 9-15, 2 μM): 27%; surface area covered by bone nodules that did form ([3]; treated days 9-15, compared to control cultures): greater surface area; ERRα detection in bone nodules (ERRα): almost undetectable

Question: Which results are given for `C=C1/C(=C\C=C2/CCC[C@]3(C)[C@@H]([C@H](C)CCCC(C)(C)O)CC[C@@H]23)C[C@@H](O)C[C@@H]1O` [D3, 1,25(OH)2 vitamin D3]?
Answer: effect of acute exposure on ERRα mRNA levels (ERRα mRNA): no effect; stimulation of ERRα mRNA expression at times later than day 6 (ERRα mRNA): not later; stimulation (increase) of ERRα mRNA expression (ERRα mRNA; day 6): 47%

Question: With `C[C@@H]1C[C@H]2[C@@H]3CCC4=CC(=O)C=C[C@]4(C)[C@@]3(F)[C@@H](O)C[C@]2(C)[C@@]1(O)C(=O)CO` [Dex, dexamethasone] as the compound, how does the “effect of acute treatment on ERRα expression level” value (ERRα mRNA; 24 hour acute treatment of RC cells at day 9 or day 15) read?
Answer: The value was “no effect”.

Question: For `CCCCC[C@H](O)/C=C/[C@H]1[C@H](O)CC(=O)[C@@H]1C/C=C\CCCC(=O)O` [PGE2], which “effect on ERRα expression” value (ERRα mRNA; RC cells, PGE2 10^−9 M, Dex) is on record?
Answer: Its value is “Neither PGE2 nor Dex had any significant effect”.

Question: How did the “decrease of ERRα after acute exposure” value (ERRα mRNA; acute exposure at day 7) turn out when PTH-1-34: 1-34 PTH (Sigma) was run?
Answer: The value was 25%.

Question: And the “decrease of ERRα after acute exposure” value (ERRα mRNA; acute exposure at day 16)?
Answer: Its value is 33%.

Question: What about the “inhibition of ERRα” value (ERRα mRNA; continuous 10^−11 M, day 6) of the same compound?
Answer: Its value is 15%.

Question: And the “increase of ERRα” value (ERRα mRNA; continuous 10^−11 M, day 12)?
Answer: Its value is 20%.

Question: And the “inhibition of ERRα” value (ERRα mRNA; continuous 10^−11 M, day 15)?
Answer: Its value is 26%.

Question: For TGFβ, which “effect of acute exposure on ERRα mRNA levels” value (ERRα mRNA) is on record?
Answer: Its value is “no effect”.

Question: What about the “stimulation of ERRα mRNA expression at times later than day 6” value (ERRα mRNA) of the same compound?
Answer: Its value is “not later”.

Question: What about the “stimulation (increase) of ERRα mRNA expression” value (ERRα mRNA; day 6) of the same compound?
Answer: Its value is 400%.
